Assay results as given in PubChem BioAssay (NCI).
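Protocol summary: plate cells (96-well), add compound at 5 concentrations, incubate 48 h, interpolate endpoints linearly. TGI marks complete inhibition of growth.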

Legend:
Test in all cases: DTP human tumour cell line panel, 48 h
[1] = test system: PC-3 prostate
[2] = test system: NCI-H522 lung
[3] = test system: SK-OV-3 ovarian
[4] = test system: A549 NSCLC
[5] = test system: UACC-62 melanoma
[6] = test system: A498 renal
[7] = test system: NCI-H460 lung
[8] = test system: MDA-MB-435
[9] = test system: KM12 colon
[10] = test system: SNB-19 CNS

Row | Compound | TGI [1] [µM] | TGI [2] [µM] | TGI [3] [µM] | TGI [4] [µM] | TGI [5] [µM] | TGI [6] [µM] | TGI [7] [µM] | TGI [8] [µM] | TGI [9] [µM] | TGI [10] [µM]
1 | O=CC(O)C(O)C(O)C(O)C(=O)NCCCCCCCCCCCCNC(=O)C(O)C(O)C(O)C(O)C=O (stereo not given) | > 100 | > 100 | > 100 | > 100 | > 100 | > 100 | > 100 | > 100 | > 100 | > 100
2 | COc1nc(N(C)C)nc2c1n(C)c[n+]2C | > 100 | > 100 | > 100 | > 100 | > 100 | > 100 | > 100 | > 100 | > 100 | > 100
3 | C/C=C\C(CC(=O)NCCc1cn(C(=O)OCc2ccccc2)c2ccccc12)CC(=O)OC (stereo not given) | > 100 | > 100 | > 100 | > 100 | > 100 | > 100 | > 100 | > 100 | > 100 | > 100
4 | O=C(CSCC(=O)N/N=C/c1cccs1)N/N=C/c1cccs1 | > 100 | > 100 | > 100 | > 100 | > 100 | > 100 | > 100 | > 100 | > 100 | > 100
5 | CC(C)=CCC[C@@H](C)C1=C(Nc2ccccc2Cl)C(O)=C(C)C(=O)C1=O | > 100 | 12.2 | 33.5 | 15.7 | 18 | 27.4 | > 100 | 36.1 | 17.7 | 26.8
6 | Cc1ccncc1.F[B-](F)(F)F.[Pt+2].c1ccc(-c2cccc(-c3ccccn3)n2)nc1 | > 100 | 36.3 | 17.6 | > 75.7 | 36.5 | 45.1 | 23.3 | > 81.4 | 39.5 | > 66.7
7 | CC[N+](C)(CC)CCC(O)(c1ccccc1)c1ccccc1 | > 100 | > 100 | > 100 | > 100 | > 100 | > 100 | > 100 | > 100 | > 100 | > 100
8 | CC(=O)OCC1OC(n2c3c(c(-c4cccc5ccccc45)c(C#N)c2=S)CCCC3)C(OC(C)=O)C(OC(C)=O)C1OC(C)=O (stereo not given) | > 100 | > 100 | > 100 | > 100 | > 100 | > 100 | > 100 | > 100 | > 100 | > 100
9 | COc1cccc(CC(C)NCC(O)c2ccc(O)c(O)c2)c1 (stereo not given) | > 100 | > 100 | > 100 | > 100 | > 100 | > 100 | > 100 | > 100 | > 100 | > 100
10 | CCOC(=O)C(=[N+]=[N-])C(=O)Nc1nn2nnnc2c2ccccc12 | > 100 | > 100 | > 100 | > 100 | > 100 | > 100 | > 100 | > 100 | > 100 | > 100
11 | O=[N+]([O-])c1ccc2nc(-c3ccccn3)c(-c3ccccn3)nc2c1 | > 100 | > 100 | > 100 | > 100 | > 100 | > 100 | > 100 | > 100 | > 100 | > 100
12 | O=[N+]([O-])c1ccc(S[C@@H]2[C@H]3c4c(-c5ccccc5)[nH]c(-c5ccccc5)c4[C@@H]2C[C@H]3Cl)cc1 | > 100 | 14.1 | > 100 | > 100 | 37.3 | 89 | 12.9 | 27.8 | 12.3 | > 100
13 | CCOC(=O)c1c(N2CCCC2)ncn(-c2ccccc2)c1=S | > 100 | > 100 | > 100 | > 100 | > 100 | > 100 | > 100 | > 100 | > 100 | > 100
14 | CN1CCN(c2c(Cl)cc(Cl)c3[nH]c4ccccc4c(=O)c23)CC1 | 23.3 | 19.2 | 24.3 | 32.9 | 18.6 | 5.44 | 24.1 | 19.8 | 23 | 19.7
15 | C/C(=C\c1ccccn1)c1ccccn1 | > 100 | > 100 | > 100 | > 100 | > 100 | > 100 | > 100 | > 100 | > 100 | > 100
16 | Cc1cc(=O)n2nc(SCc3ccccc3)sc2n1 | > 100 | > 100 | > 100 | > 100 | > 100 | > 100 | > 100 | > 100 | > 100 | > 100
17 | CN(C)/N=C/c1cn(C)c(=O)n(C)c1=O | > 100 | > 100 | > 100 | > 100 | > 100 | > 100 | > 100 | > 100 | > 100 | > 100
18 | C(=C\c1cccc(/C=C/c2ccccn2)n1)/c1ccccn1 | > 100 | 28.8 | > 100 | > 100 | 83.1 | 71.7 | > 100 | > 100 | > 100 | > 100
19 | CN(C)CCNC(=O)c1ccc(NCCCN(C)CCCNc2ccc3c(=O)n(CCN(C)C)c(=O)n4c5ccccc5c(=O)c2c34)c2c(=O)c3ccccc3[nH]c12 | 0.249 | 0.168 | 0.411 | 0.164 | 0.239 | 0.415 | 0.0296 | 0.18 | 0.319 | 0.523
20 | CCOP(=O)(OCC)C(Nc1cccc(F)c1)c1ccccc1 (stereo not given) | > 100 | > 100 | > 100 | > 100 | > 100 | > 100 | > 100 | > 100 | > 100 | > 100
21 | Nc1nc(-c2ccccc2N=NN2CCCC2)nc2ccccc12 | 15.4 | 16.5 | 21.4 | 10.5 | 3.77 | 20.2 | 17.9 | 6.7 | 7.36 | 16.5
22 | N=C1N(S(=O)(=O)c2ccccc2)[C@@H](Cc2ccccc2)[C@H](c2ccccc2)C1(c1ccccc1)c1ccccc1 | > 100 | > 100 | > 100 | > 100 | > 100 | > 100 | > 100 | > 100 | > 100 | > 100
